# Results reported in patent publication US20150164916A1, “ROFLUMILAST COMPOSITIONS FOR THE TREATMENT OF COPD” (Forest Laboratories Holdings Ltd., priority 2012, published 2015).
# Assays:
# Assay type in all cases: cell-based, human
# [1] = system: IL-1β release; assay: LPS-induced IL-1β release in isolated peripheral blood neutrophils (LUMINEX); conditions: LPS (1 μg/ml), 6 h
# Procedure: (§1) Neutrophils and monocytes were isolated from peripheral venous blood by standard laboratory procedures. In brief, peripheral venous blood was mixed with dextran 500 at 3% (in 0.9% saline) in a proportion of 2:1. This mixture was incubated at room temperature for 30 min until erythrocytes were sedimented. The upper phase was carefully collected and added on Ficoll-Paque Histopaque 1077 (Amershan Pharmacia Biotech, Barcelona, Spain) density gradient in a proportion of 3:1. The two phases generated were centrifuged at 150 g, 4° C. for 30 min. Thus, the interface was collected to isolate monocytes, and the pellet obtained (which is consisted a mixture of neutrophils and low proportion of residual erythrocytes and traces of eosinophils and basophils) was resuspended in an erythrocyte lysis buffer (Biolegend, UK) for 5 min in ice. Cell suspension was washed two times with phosphate buffer (PBS).
# (§2) Peripheral neutrophil cell suspension was adjusted to 500×10^3 cells per well in 24-well plates and incubated in RPMI culture medium for 1 h into the incubator at 37° C., 5% CO2. […] Both the stimulus and drug were remained together for 6 h. Supernatants were collected and centrifuged at 120 g for 5 min, and the free-cell supernatant was used to measure IL-8, MMP-9, IL-1β, GM-CSF and CCL-5.
# (§3) IL-8 was determined by using commercially available enzyme-linked immunosorbent assay kit for IL-8 (R&D Systems, UK) according to the manufacturer's protocol. MMP-9, IL-1β, GM-CSF and CCL-5 were measured by LUMINEX technology according to the manufacturer's protocol.
# (§4) Data were presented as mean±SEM. IC50 values were calculated for each drug and their combinations. Statistical analysis of results was carried out by analysis of variance (ANOVA) followed by Bonferroni test, by Student's t test, or by non-parametric tests as appropriate (GraphPad Software Inc, San Diego, Calif., USA). Significance was accepted when P<0.05. For clinical correlations of lung function and gene expression from neutrophils the non-parametric Spearman correlation analysis was carried out.
# [2] = system: GM-CSF release; assay: LPS-induced GM-CSF release in isolated peripheral blood neutrophils (LUMINEX); conditions: LPS (1 μg/ml), 6 h
# Procedure: as §1, with “The upper phase was carefully collected and added on Ficoll-Paque Histopaque 1077 (Amershan Pharmacia Biotech, Barcelona, Spain) density gradient in a proportion of 3:1.” left out
# as §2, §3, §4
# [3] = system: MKP1; assay: Real time RT-PCR of MKP1 mRNA in CSE-stimulated neutrophils from COPD patients; conditions: RNO 1 nM and 1 μM, DEX 1 μM, RNO 1 nM plus DEX 1 μM, NAC 1 mM for 1 h, then CSE 5% 6 h
# Procedure: (§5) Neutrophils and monocytes were isolated from peripheral venous blood by standard laboratory procedures. In brief, peripheral venous blood was mixed with dextran 500 at 3% (in 0.9% saline) in a proportion of 2:1. This mixture was incubated at room temperature for 30 min until erythrocytes were sedimented. The upper phase was carefully collected and added on Ficoll-Paque Histopaque 1077 (Amershan Pharmacia Biotech, Barcelona, Spain) density gradient in a proportion of 3:1. The two phases generated were centrifuged at 150 g, 4° C. for 30 min. […]
# (§6) CSE was prepared as previously outlined (Milara et al.; Ortiz et al.). […] The quality of the prepared CSE solution was assessed based on the absorbance at 320 nm, which is the specific absorption wavelength of peroxynitrite. Stock solutions with an absorbance value of 3.0±0.1 were used. […]
# (§7) Total RNA was obtained from isolated neutrophils under basal conditions or after different drug and stimulation periods defined above by using TriPure® Isolation Reagent (Roche, Indianapolis, USA). […] Relative quantification of these transcripts was determined with the 2^−ΔΔCt method using glyceraldehyde phosphate dehydrogenase (GAPDH) as endogenous control (Applied Biosystems; 4352339E) and normalized to control group as previously described (Milara et al., 2009).
# (§8) Then, mRNA was isolated and quantified for different genes.
# [4] = system: PI3Kδ; assay: Real time RT-PCR of PI3Kδ expression in CSE-stimulated neutrophils from COPD patients; conditions: RNO 1 nM and 1 μM, DEX 1 μM, RNO 1 nM plus DEX 1 μM, NAC 1 mM, CSE 5%
# Procedure: as §5, §6, §7, §8
# [5] = system: GCβ; assay: Real time RT-PCR of GCβ mRNA in CSE-stimulated neutrophils from COPD patients; conditions: RNO 1 nM and 1 μM, DEX 1 μM, RNO 1 nM plus DEX 1 μM, NAC 1 mM, CSE 5%
# Procedure: as §5, §6, §7, §8
compound,measurement,setting,value
"O=C(Nc1c(Cl)c[n+]([O-])cc1Cl)c1ccc(OC(F)F)c(OCC2CC2)c1 [RNO, roflumilast N-oxide]","-log IC50, inhibition of IL-1β release",[1]; neutrophils from COPD patients,7.82 ± 0.21
same,Maximal % Inhibition of IL-1β release,[1]; neutrophils from COPD patients,66.69 ± 6.86%
same,"-log IC50, inhibition of IL-1β release",[1]; neutrophils from HEALTHY,7.73 ± 0.22
same,Maximal % Inhibition of IL-1β release,[1]; neutrophils from HEALTHY,67.08 ± 6.63%
same,"-log IC50, inhibition of GM-CSF release",[2]; neutrophils from COPD patients,8.10 ± 0.22
same,Maximal % Inhibition of GM-CSF release,[2]; neutrophils from COPD patients,86.6 ± 8.04%
same,"-log IC50, inhibition of GM-CSF release",[2]; neutrophils from HEALTHY,8.25 ± 0.21
same,Maximal % Inhibition of GM-CSF release,[2]; neutrophils from HEALTHY,78.87 ± 6.57%
same,effect on CSE-induced down-regulation of MKP1 mRNA expression,[3],reversed the effect of CSE
same,effect on CSE-induced PI3Kδ upregulation,[4],inhibited
same,effect on CSE-induced GCβ upregulation,[5],inhibited
